Reference: patent US10793557B2, “Sting agonist compounds” (Merck Sharp & Dohme Corp., priority 2018, dated 2020)

Key:
[1] = tested on: secretion of interferon-beta from THP1 cells; assay: IFN-β secretion in THP1 cell culture (5 h); format: cell-based; conditions: Homo sapiens, THP-1, 5 h, 30 uM cGAMP = 100%; for activation at 3 µM: compound at 3 uM, read-out: % Effect relative to 2′3′-cGAMP (@ 3 uM); for activation at 30 µM: compound at 30 μM, read-out: % Effect at 30 μM relative to 2′3′-cGAMP
In short: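 Thawed THP1 cells (0.8×10^6/mL, RPMI with 0.5% FBS) exposed to compounds 1.5–30000 nM (0.3% DMSO) for 5 h at 37 °C. Supernatant IFN-β quantified by AlphaLISA. Percent effect normalised to 30 uM cGAMP and DMSO controls; EC50 from 4-parameter fit.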

full-length HAQ STING = target: T1, full-length HAQ STING (Homo sapiens, UniProt Q86WV6, G230A/H232R/R293Q/R71H); assay: 3H-cGAMP filtration binding assay (HAQ STING); conditions: for EC50: competition with tritiated cGAMP, HAQ STING membrane
T1 construct: AviTag (after GG linker) (C); HRV3C cleavage site (after GS linker) (C); HIS8 (C); made in house; host or cells: Trichoplusia ni (Hi-Five) insect cells infected with baculovirus (virus generated and amplified in Sf21 cells); used as a washed membrane preparation
T1 sequence (Q86WV6 with tags, fused parts or gaps R71H/G230A/H232R/R293Q): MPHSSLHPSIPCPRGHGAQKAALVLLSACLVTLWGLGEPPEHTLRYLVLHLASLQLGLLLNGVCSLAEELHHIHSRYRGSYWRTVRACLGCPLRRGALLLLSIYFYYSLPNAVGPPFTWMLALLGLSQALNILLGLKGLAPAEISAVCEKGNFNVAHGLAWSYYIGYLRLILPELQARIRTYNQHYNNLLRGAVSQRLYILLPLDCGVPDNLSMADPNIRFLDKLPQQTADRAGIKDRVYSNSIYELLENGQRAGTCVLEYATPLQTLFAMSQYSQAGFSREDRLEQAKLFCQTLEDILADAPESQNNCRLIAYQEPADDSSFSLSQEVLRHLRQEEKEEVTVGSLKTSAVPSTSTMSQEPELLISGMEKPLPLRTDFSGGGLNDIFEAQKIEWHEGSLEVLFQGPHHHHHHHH
In short: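 Hi-Five (T. ni) membranes overexpressing the STING variant (2.2 ug/ml working) preincubated with compound 60 min at RT in PBS, then [3H]cGAMP (8 nM working stock) added for 60 min at RT. Bound radioactivity captured on GF/B filters and counted by scintillation; EC50 from 4-parameter fit of control-normalized activity.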

full-length WT STING = target: T2, full-length WT STING (Homo sapiens, UniProt Q86WV6, H232R); assay: 3H-cGAMP filtration binding assay (WT STING); conditions: for EC50: competition with tritiated cGAMP, WT STING membrane
T2 construct: AviTag (after gg linker) (C); HRV3C cleavage site (after gs linker) (C); HIS8 (C); made in house; host or cells: Trichoplusia ni (Hi-Five) insect cells infected with baculovirus (virus generated and amplified in Sf21 cells); used as a washed membrane preparation
T2 sequence (Q86WV6 with tags, fused parts or gaps H232R): as the sequence (Q86WV6 with tags, fused parts or gaps R71H/G230A/H232R/R293Q) above, with H71R, A230G, Q293R counted along it
In short: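 Competitive filtration binding of [3H]cGAMP (16 nM working stock) to T. ni membranes overexpressing full-length WT human STING, 60 min at RT in PBS. Bound radioactivity counted after GF/B filtration; 10-point 1:3 titration, EC50 from 4-parameter fit after control normalisation.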

| EC50 (full-length HAQ STING) | EC50 (full-length WT STING) | inhibition at 2 µM (full-length HAQ STING; at 2,000 nM compound) | inhibition at 2 µM (full-length WT STING; at 2,000 nM compound) | Compound | activation at 3 µM [1] | activation at 30 µM [1] |
| --- | --- | --- | --- | --- | --- | --- |
| 1 nM | 2 nM | – | – | COc1cc2sc(C(=O)C[C@H](C)C(=O)O)cc2c(Cl)c1OCCCOc1c(O)cc2sc(C(=O)C[C@H](C)C(=O)O)cc2c1F [Example 190, (S)-4-(5-(3-((2-((S)-3-carboxybutanoyl)-4-chloro-6-methoxybenzo[b]thiophen-5-yl)oxy)propoxy)-4-fluoro-6-hydroxybenzo[b]thiophen-2-yl)-2-methyl-4-oxobutanoic acid] | 126% | – |
| 1 nM | 5 nM | – | – | COc1cc2cc(C(=O)CCC(=O)O)sc2cc1OCCCOc1c(OC)cc2sc(C(=O)CCC(=O)O)cc2c1F [Example 125, 4-(6-(3-((2-(3-carboxypropanoyl)-4-fluoro-6-methoxybenzo[b]thiophen-5-yl)oxy)propoxy)-5-methoxybenzo[b]thiophen-2-yl)-4-oxobutanoic acid] | – | 156% |
| 3320 nM | 9480 nM | – | – | COc1cc2sc(CC[C@H](C)C(=O)O)cc2cc1CCCc1cc2cc(C(=O)CCC(=O)O)sc2cc1OC [Example 31, (S)-4-(5-(3-(2-(3-carboxybutyl)-6-methoxybenzo[b]thiophen-5-yl)propyl)-6-methoxybenzo[b]thiophen-2-yl)-4-oxobutanoic acid] | – | 117% |
| 1 nM | 1 nM | – | – | COc1cc2sc(C(=O)C[C@H](C)C(=O)O)cc2cc1OCCCOc1c(OC)cc2sc(C(=O)C[C@H](C)C(=O)NS(C)(=O)=O)cc2c1F [Example 179, (S)-4-(5-(3-((4-fluoro-6-methoxy-2-((S)-3-methyl-4-(methylsulfonamido)-4-oxobutanoyl)-benzo[b]thiophen-5-yl)oxy)propoxy)-6-methoxybenzo[b]thiophen-2-yl)-2-methyl-4-oxobutanoic acid] | – | 79% |
| 46 nM | 112 nM | – | – | Cc1cc2sc(C(=O)CCC(=O)O)cc2cc1CCCc1cc2cc(C(=O)CCC(=O)O)sc2cc1C [Example 28, 4,4′-(propane-1,3-diylbis(6-methylbenzo[b]thiophene-5,2-diyl))bis(4-oxobutanoic acid)] | – | 116% |
| 139 nM | 691 nM | – | – | COc1cc2sc(C(=O)CCC(=O)O)cc2cc1CCCNc1nc2cc(C(=O)CCC(=O)O)sc2cc1OC [Example 75, 4-(5-((3-(2-(3-carboxypropanoyl)-6-methoxybenzo[b]thiophen-5-yl)propyl)amino)-6-methoxythieno[3,2-b]pyridin-2-yl)-4-oxobutanoic acid] | – | 63% |
| – | – | 35% | 3% | COc1cc2sc(CC[C@H](C)C(=O)O)cc2c(Cl)c1OCCCOc1c(OC)cc2sc(C(=O)C[C@H](C)C(=O)O)cc2c1Cl [Example 152, (S)-4-(5-(3-((2-((S)-3-carboxybutyl)-4-chloro-6-methoxybenzo[b]thiophen-5-yl)oxy)propoxy)-4-chloro-6-methoxybenzo[b]thiophen-2-yl)-2-methyl-4-oxobutanoic acid] | 7% | – |
| 2 nM | 4 nM | – | – | COc1cc2sc(C(=O)CCC(=O)O)cc2c(F)c1OCCCOc1c(OC)cc2sc(C(=O)C[C@H](C)C(=O)O)cc2c1F [Example 64, (S)-4-(5-(3-((2-(3-carboxypropanoyl)-4-fluoro-6-methoxybenzo[b]thiophen-5-yl)oxy)propoxy)-4-fluoro-6-methoxybenzo[b]thiophen-2-yl)-2-methyl-4-oxobutanoic acid] | – | 58% |

| Compound | EC50 (full-length HAQ STING) | EC50 (full-length WT STING) | inhibition at 2 µM (full-length HAQ STING; at 2,000 nM compound) | inhibition at 2 µM (full-length WT STING; at 2,000 nM compound) | activation at 3 µM [1] | activation at 30 µM [1] |
| --- | --- | --- | --- | --- | --- | --- |
| COc1cc2sc(CC[C@H](C)C(=O)O)cc2c(F)c1OCCCCOc1c(OC)cc2sc(C(=O)C[C@H](C)C(=O)O)cc2c1F [Example 124, (S)-4-(5-(4-((2-((S)-3-carboxybutyl)-4-fluoro-6-methoxybenzo[b]thiophen-5-yl)oxy)butoxy)-4-fluoro-6-methoxybenzo[b]thiophen-2-yl)-2-methyl-4-oxobutanoic acid] | 263 nM | 3060 nM | – | – | 45% | – |
